From PubChem BioAssay AID248 (DTP/NCI, 2004)
Values joined by “and” are separate entries in the source; they are usually repeats but may differ in a detail not shown here. Equal entries are not always repeated. Toxic doses and inconclusive results are not listed. No stated cut-off is given here; in the data, active means T/C of 150% or more; inactive means T/C below 125%.

System: L1210 leukemia ip in BDF1 mice, survival T/C
Assay: NCI In Vivo Anticancer Drug Screen. Data for tumor model L1210 Leukemia (intraperitoneal) in B6D2F1 (BDF1) mice
Conditions: endpoint: mean survival time, higher = longer survival
In short: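 Mice bearing the transplanted tumor received compound or vehicle. Survival of the treated group was divided by that of the vehicle-treated control group to give the ratio.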

[1] = dose: 100.0 mg/kg/injection, schedule: Q01DX009 (ip), vehicle: saline with Tween-80
[2] = dose: 200.0 mg/kg/injection, schedule: Q01DX009 (ip), vehicle: saline with Tween-80
[3] = dose: 100.0 mg/kg/injection, schedule: Q01DX001 (ip), vehicle: Klucel (hydroxypropylcellulose) (HPC)
[4] = dose: 200.0 mg/kg/injection, schedule: Q01DX001 (ip), vehicle: Klucel (hydroxypropylcellulose) (HPC)
[5] = dose: 100.0 mg/kg/injection, schedule: Q04DX002 (ip), vehicle: Klucel (hydroxypropylcellulose) (HPC)
[6] = dose: 200.0 mg/kg/injection, schedule: Q04DX002 (ip), vehicle: Klucel (hydroxypropylcellulose) (HPC)
[7] = dose: 400.0 mg/kg/injection, schedule: Q04DX002 (ip), vehicle: Klucel (hydroxypropylcellulose) (HPC)
[8] = dose: 100.0 mg/kg/injection, schedule: Q04DX003 (ip), vehicle: Klucel (hydroxypropylcellulose) (HPC)
[9] = dose: 200.0 mg/kg/injection, schedule: Q04DX003 (ip), vehicle: Klucel (hydroxypropylcellulose) (HPC)
[10] = dose: 400.0 mg/kg/injection, schedule: Q04DX003 (ip), vehicle: Klucel (hydroxypropylcellulose) (HPC)
[11] = dose: 100.0 mg/kg/injection, schedule: Q01DX009 (ip), vehicle: Klucel (hydroxypropylcellulose) (HPC)
[12] = dose: 200.0 mg/kg/injection, schedule: Q01DX009 (ip), vehicle: Klucel (hydroxypropylcellulose) (HPC)
[13] = dose: 400.0 mg/kg/injection, schedule: Q01DX009 (ip), vehicle: Klucel (hydroxypropylcellulose) (HPC)

Measured: T/C

CCOC(=O)C(C)(OCC)OCC
inactive: dose: 100.0 mg/kg/injection, schedule: Q01DX009 (ip), vehicle: saline 103 % of control | dose: 100.0 mg/kg/injection, schedule: Q01DX009 (ip), vehicle: water 100 % of control | dose: 100.0 mg/kg/injection, schedule: Q04DX003 (ip), vehicle: saline 109 % of control | dose: 100.0 mg/kg/injection, schedule: Q04DX003 (ip), vehicle: water 97 % of control | dose: 200.0 mg/kg/injection, schedule: Q01DX009 (ip), vehicle: saline 96 % of control | dose: 200.0 mg/kg/injection, schedule: Q01DX009 (ip), vehicle: water 100 % of control | dose: 200.0 mg/kg/injection, schedule: Q04DX003 (ip), vehicle: saline 96 % of control | dose: 200.0 mg/kg/injection, schedule: Q04DX003 (ip), vehicle: water 101 % of control | dose: 400.0 mg/kg/injection, schedule: Q01DX009 (ip), vehicle: saline 88 % of control | dose: 400.0 mg/kg/injection, schedule: Q01DX009 (ip), vehicle: water 91 % of control | dose: 400.0 mg/kg/injection, schedule: Q04DX003 (ip), vehicle: saline 102 % of control | dose: 400.0 mg/kg/injection, schedule: Q04DX003 (ip), vehicle: water 97 % of control

O=[N+]([O-])c1cc(/C=N\N=C\c2ccco2)ccc1Cl
inactive: dose: 5.0 mg/kg/injection, schedule: Q01DX001 (ip), vehicle: saline 100 % of control | dose: 10.0 mg/kg/injection, schedule: Q01DX001 (ip), vehicle: saline 98 % of control | dose: 20.0 mg/kg/injection, schedule: Q01DX001 (ip), vehicle: saline 96 % of control | dose: 40.0 mg/kg/injection, schedule: Q01DX001 (ip), vehicle: saline 88 % of control | dose: 80.0 mg/kg/injection, schedule: Q01DX001 (ip), vehicle: saline 88 % of control

COc1ccc(OC)c(NC(=S)NC(=O)c2ccc(Cl)cc2Cl)c1
inactive: dose: 100.0 mg/kg/injection, schedule: Q01DX001 (ip), vehicle: saline with Tween-80 89 % of control | [1] 100 % of control and 102 % of control | dose: 100.0 mg/kg/injection, schedule: Q04DX002 (ip), vehicle: saline with Tween-80 93 % of control and 100 % of control | dose: 100.0 mg/kg/injection, schedule: Q04DX003 (ip), vehicle: saline with Tween-80 105 % of control | dose: 200.0 mg/kg/injection, schedule: Q01DX001 (ip), vehicle: saline with Tween-80 86 % of control | [2] 96 % of control and 99 % of control | dose: 200.0 mg/kg/injection, schedule: Q04DX002 (ip), vehicle: saline with Tween-80 106 % of control and 107 % of control | dose: 200.0 mg/kg/injection, schedule: Q04DX003 (ip), vehicle: saline with Tween-80 92 % of control | dose: 400.0 mg/kg/injection, schedule: Q01DX001 (ip), vehicle: saline with Tween-80 96 % of control | dose: 400.0 mg/kg/injection, schedule: Q01DX009 (ip), vehicle: saline with Tween-80 89 % of control | dose: 400.0 mg/kg/injection, schedule: Q04DX002 (ip), vehicle: saline with Tween-80 93 % of control | dose: 400.0 mg/kg/injection, schedule: Q04DX003 (ip), vehicle: saline with Tween-80 95 % of control

Cc1nc(N)[nH]c(=O)c1CCCNS(=O)(=O)c1ccccc1
inactive: dose: 50.0 mg/kg/injection, schedule: Q01DX001 (ip), vehicle: Klucel (hydroxypropylcellulose) (HPC) 105 % of control | [3] 94 % of control | [4] 90 % of control

C=C(C)COc1ccc(Nc2ccccc2)cc1
inactive: [3] 92 % of control | [4] 95 % of control | dose: 400.0 mg/kg/injection, schedule: Q01DX001 (ip), vehicle: Klucel (hydroxypropylcellulose) (HPC) 89 % of control

O=Cc1ccc2c(c1)C(=O)c1ccccc1C2=O
inactive: [5] 90 % of control | [6] 97 % of control | [7] 93 % of control

COC(=O)c1c(OC)ccc2c1CC1C3Nc4ccccc4C3CCN1C2 (configuration not stated)
inactive: [8] 94 % of control | [9] 90 % of control | [10] 90 % of control

NC(N)=Nc1ccc(C(=O)Oc2ccc([N+](=O)[O-])cc2[N+](=O)[O-])cc1
inactive: dose: 25.0 mg/kg/injection, schedule: Q04DX003 (ip), vehicle: Klucel (hydroxypropylcellulose) (HPC) 96 % of control | dose: 50.0 mg/kg/injection, schedule: Q01DX009 (ip), vehicle: Klucel (hydroxypropylcellulose) (HPC) 94 % of control | dose: 50.0 mg/kg/injection, schedule: Q04DX003 (ip), vehicle: Klucel (hydroxypropylcellulose) (HPC) 98 % of control | [11] 94 % of control | [8] 91 % of control

CCC(Cl)COP(=O)(CC(Cl)CC)O/C(C)=C(\C)OP(=O)(OCC(Cl)CC)OCC(Cl)CC (configuration not stated)
inactive: dose: 25.0 mg/kg/injection, schedule: Q04DX002 (sc), vehicle: olive oil, sesame oil, peanut oil 104 % of control | dose: 50.0 mg/kg/injection, schedule: Q04DX002 (sc), vehicle: olive oil, sesame oil, peanut oil 93 % of control | dose: 100.0 mg/kg/injection, schedule: Q04DX002 (sc), vehicle: olive oil, sesame oil, peanut oil 107 % of control

CCOC(=O)/C=C/c1ccc([N+](=O)[O-])cc1
inactive: [8] 95 % of control | [9] 102 % of control | [10] 98 % of control

COc1ccc(C)cc1NC(=O)OCCOc1cc(C)c(Cl)c(C)c1
inactive: dose: 50.0 mg/kg/injection, schedule: Q01DX009 (ip), vehicle: saline with Tween-80 90 % of control | [1] 87 % of control | [2] 87 % of control

COC1OC(CI)C(OC(C)=O)C(OC(C)=O)C1OS(C)(=O)=O (configuration not stated)
inactive: [5] 97 % of control | [6] 106 % of control | [7] 91 % of control

COc1ccccc1NC(=O)Nc1cccc(C)c1C
inactive: [11] 96 % of control | [8] 93 % of control | [12] 92 % of control | [9] 93 % of control | [13] 100 % of control | [10] 92 % of control

CC1=CC(=O)CC(C)C2CC(=C(C)C)CC12 (configuration not stated)
inactive: [8] 100 % of control | [9] 108 % of control | [10] 100 % of control

O=C(O)CSCCc1ccccc1
inactive: [11] 105 % of control | [8] 106 % of control | [12] 94 % of control | [9] 105 % of control | [13] 100 % of control | [10] 100 % of control

CC(=O)C(O)COP(=O)(O)O (configuration not stated)
inactive: dose: 50.0 mg/kg/injection, schedule: Q01DX001 (ip), vehicle: saline 96 % of control | dose: 100.0 mg/kg/injection, schedule: Q01DX001 (ip), vehicle: saline 100 % of control | dose: 200.0 mg/kg/injection, schedule: Q01DX001 (ip), vehicle: saline 102 % of control | dose: 400.0 mg/kg/injection, schedule: Q01DX001 (ip), vehicle: saline 100 % of control
